The values that follow come from patent US20230081064A1, “FORMULATIONS FOR DELIVERY TO THE EAR” (Spiral Therapeutics Inc., priority 2021, published 2023).

Converted amounts (≈) assume the structure as drawn.

This series can be described thus: Solubility of the active agent in water. The format is physicochemical.

A word on the solubility: it is the dissolved amount per volume that the medium holds. A lower solubility goes with little dissolved substance. `COc1ccc2[nH]cc(CCNC(=O)CC3C(=O)N(CCc4ccc(Cl)cc4Cl)CC(=O)N3CCc3cccs3)c2c1` (stereo not shown) [LPT99, 2-(4-(2,4-Dichlorophenethyl)-3,6-dioxo-1-(2-(thiophen-2-yl)ethyl)piperazin-2-yl)-N-(2-(5-methoxy-1H-indol-3-yl)ethyl)acetamide]: the solubility was ~2.4 µM (≈ 1.51 µg/mL).
